Values of other authors in patent publication US10092609B2, “Process for preparing medicinal mycological preparations” (priority 2015, dated 2018).

Conditions: in vivo

CC[C@H](C)C(=O)O[C@H]1C[C@@H](C)C=C2C=C[C@H](C)[C@H](CC[C@@H]3C[C@@H](O)CC(=O)O3)[C@H]21 [lovastatin]
reduction of “bad” LDL-cholesterol in circulation: about 20%
